Reference: patent US6333311A, “Useful properties of human lactoferrin and variants thereof” (Pharming, priority 1998, dated 2001)

Columns and labels:
[1] = target: human transferrin (hTF) (Homo sapiens, UniProt P02787); experiment: Competitive inhibition of hLF binding to solid-phase lipid A, competitor hTF; details: hTF as competitor of 12.5 nM biotinylated hLF binding to immobilized lipid A
[2] = target: T1, human lactoferrin, iron-saturated hLF (Homo sapiens, UniProt P02788); experiment: Competitive inhibition of hLF binding to solid-phase lipid A, competitor iron-saturated hLF; details: concentration of unlabelled iron-saturated hLF giving 50% inhibition of the response of 12.5 nM biotinylated hLF on immobilized lipid A; mean ± SD of at least 4 experiments
T1 construct: Human LF was purified from fresh human milk by cation-exchange chromatography; from tissue; host or cells: fresh human milk

[3] = target: T2, human lactoferrin, natural hLF (purified from human milk, 3.5% saturated with iron) (Homo sapiens, UniProt P02788); experiment: Competitive inhibition of hLF binding to solid-phase lipid A, competitor natural hLF; details: concentration of unlabelled natural hLF giving 50% inhibition of the response of 12.5 nM biotinylated hLF on immobilized lipid A; mean ± SD of at least 4 experiments
T2 construct: Human LF was purified from fresh human milk by cation-exchange chromatography; from tissue; host or cells: fresh human milk
T2 sequence (P02788 with tags, fused parts or gaps limits assumed): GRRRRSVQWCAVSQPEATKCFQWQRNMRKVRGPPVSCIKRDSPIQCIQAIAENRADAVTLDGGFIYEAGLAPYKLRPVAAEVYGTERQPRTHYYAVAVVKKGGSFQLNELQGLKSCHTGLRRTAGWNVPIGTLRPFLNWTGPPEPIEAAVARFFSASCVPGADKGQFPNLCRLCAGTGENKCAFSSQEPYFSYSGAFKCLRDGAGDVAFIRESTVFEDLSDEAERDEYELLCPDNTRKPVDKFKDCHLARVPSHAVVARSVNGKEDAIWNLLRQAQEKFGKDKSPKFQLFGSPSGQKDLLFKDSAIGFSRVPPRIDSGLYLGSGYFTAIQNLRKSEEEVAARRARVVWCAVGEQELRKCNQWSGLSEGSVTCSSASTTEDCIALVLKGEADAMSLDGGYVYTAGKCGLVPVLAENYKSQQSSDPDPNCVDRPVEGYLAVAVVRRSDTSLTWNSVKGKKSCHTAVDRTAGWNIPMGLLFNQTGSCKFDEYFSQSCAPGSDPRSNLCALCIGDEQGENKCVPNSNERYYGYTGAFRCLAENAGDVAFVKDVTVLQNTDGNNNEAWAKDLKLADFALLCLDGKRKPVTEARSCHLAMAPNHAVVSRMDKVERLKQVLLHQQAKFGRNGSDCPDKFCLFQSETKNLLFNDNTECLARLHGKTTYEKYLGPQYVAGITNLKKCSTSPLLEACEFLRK

T1 sequence (P02788 with tags, fused parts or gaps limits assumed): as above
human transferrin (hTF), sequence (P02787 20-698): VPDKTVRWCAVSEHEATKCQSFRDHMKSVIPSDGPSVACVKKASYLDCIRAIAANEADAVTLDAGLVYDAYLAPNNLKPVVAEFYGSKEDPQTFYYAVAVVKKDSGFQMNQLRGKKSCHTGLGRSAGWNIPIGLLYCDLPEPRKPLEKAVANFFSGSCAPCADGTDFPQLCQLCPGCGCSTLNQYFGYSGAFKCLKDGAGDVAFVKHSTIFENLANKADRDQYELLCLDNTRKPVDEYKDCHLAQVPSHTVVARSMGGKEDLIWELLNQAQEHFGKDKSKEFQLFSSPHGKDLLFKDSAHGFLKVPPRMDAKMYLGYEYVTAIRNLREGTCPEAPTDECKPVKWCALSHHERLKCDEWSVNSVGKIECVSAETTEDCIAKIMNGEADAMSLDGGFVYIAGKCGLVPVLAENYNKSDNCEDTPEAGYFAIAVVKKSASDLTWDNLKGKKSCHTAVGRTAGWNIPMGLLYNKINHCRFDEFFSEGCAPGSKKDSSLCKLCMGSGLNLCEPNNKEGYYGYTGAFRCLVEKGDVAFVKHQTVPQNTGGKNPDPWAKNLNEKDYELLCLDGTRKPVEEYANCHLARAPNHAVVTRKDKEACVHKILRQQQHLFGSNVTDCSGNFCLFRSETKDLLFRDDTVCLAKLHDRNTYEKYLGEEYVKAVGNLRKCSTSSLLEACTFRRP

## Lipid A
[1]
  IC50 Competitor, hTF: no competition
[2]
  IC50: 1.3 ± 0.4 nM
[3]
  IC50: 1.7 ± 0.5 nM
